{"source": "patent US8686003B2", "about": "“Tissue non-specific alkaline phosphatase inhibitors and uses thereof for treating vascular calcification” (Sanford-Burnham Medical Research Institute, priority 2007, dated 2014)"}
{"molecular_target": "T1, tissue-nonspecific alkaline phosphatase (TNAP) (Homo sapiens, UniProt P05186)", "T1 construct": "made in house; host or cells: COS-1 cells, transient expression; dialyzed serum-free conditioned medium", "T1 sequence (P05186 18-502 limits assumed)": "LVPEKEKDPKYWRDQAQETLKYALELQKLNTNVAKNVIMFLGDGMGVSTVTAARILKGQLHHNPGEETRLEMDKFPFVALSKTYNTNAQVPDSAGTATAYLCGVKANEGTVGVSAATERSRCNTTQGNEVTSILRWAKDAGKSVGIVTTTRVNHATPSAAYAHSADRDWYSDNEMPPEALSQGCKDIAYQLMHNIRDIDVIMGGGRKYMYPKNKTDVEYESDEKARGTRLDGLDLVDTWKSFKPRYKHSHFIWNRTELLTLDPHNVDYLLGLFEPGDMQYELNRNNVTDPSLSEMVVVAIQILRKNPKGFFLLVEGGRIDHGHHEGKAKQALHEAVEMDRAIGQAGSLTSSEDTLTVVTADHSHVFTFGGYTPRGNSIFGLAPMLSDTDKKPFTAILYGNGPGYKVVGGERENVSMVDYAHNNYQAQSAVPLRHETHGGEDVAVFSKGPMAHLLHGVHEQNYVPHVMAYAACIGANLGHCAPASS", "experiment": "TNAP inhibition screening assay (colorimetric pNPP / luminescence CDP-star), IC50", "format": "biochemical", "conditions": "Tables A-H; tissue-nonspecific alkaline phosphatase inhibitors", "procedure": "(§1) Expression plasmids containing a secreted epitope-tagged TNAP, PLAP and IAP were transfected into COS-1 cells for transient expression using a standard electroporation method. Medium was replaced to Opti-MEM 24 hours later, and the serum free media containing secreted proteins were collected 60 hours after electroporation. Conditioned medium was dialyzed against TBS containing 1 mM MgCl2 ad 20 μM ZnCl2 (to remove phosphate) and filtrated with a 2 μm cellulose acetate filter.\nA TNAP stock solution was diluted 120-fold and about 12 ul of diluted TNAP solution were dispensed into 96 well microtiter plates with half area bottom (Costar, Corning, N.Y.) by an auto dispenser (Matrix, Hudson, N.H.). A robotic liquid handler, Biomek™ FX (Beckman Coulter, Fullerton, Calif.) dispensed about 2.5 μl of each compound (dissolved in 10% DMSO) from the library plates. Plates were incubated at room temperature for at least one hour to allow TNAP to interact with each compound prior to addition of about 10.5 μl substrate solution (1.19 mM pNPP). After about 30 minutes of incubation, A405 nm was measured with a microtiter plate reader, Analyst™ HT (Molecular Devices, Sunnyvale, Calif.). Both the enzyme (TNAP) and substrate (pNPP) solution were made in diethanolamine (DEA) buffers; the final reaction contains 1M DEA-HCl buffer, pH about 9.8, containing about 1 mM MgCl2 and about 20 μM ZnCl2.\nCompound aliquots (4 uL @ 100 uM in 10% DMSO) were added with about 8 uL of TNAP working solution, prepared by 800-fold dilution of TNAP in 2.5-fold assay buffer (250 mM DEA, pH 9.8, 2.5 mM MgCl2, 0.05 mM ZnCl2). CDP-star substrate solution (about 8 uL of 125 uM in water) was added to each well. […] Plates (white 384-well small volume Greiner 784075) were incubated at room temperature for about 0.5 hour and luminescence signal was measured using an EnVision plate reader (PerkinElmer).", "units": {"IC50": "µM"}}
{"molecule": "O=C(O)c1cc(-c2ccccc2Cl)n[nH]1", "note": "[Compound A1, 3-(2-chlorophenyl)-1H-pyrazole-5-carboxylic acid]", "IC50": 0.68}
{"molecule": "COC(=O)c1cc(-c2c[nH]c3ccccc23)[nH]n1", "note": "[Compound A2, methyl 3-(1H-indol-3-yl)-1H-pyrazole-5-carboxylate]", "IC50": 0.81}
{"molecule": "O=C(O)c1cc(-c2ccc(Cl)cc2)n[nH]1", "note": "[Compound A3, 3-(4-chlorophenyl)-1H-pyrazole-5-carboxylic acid]", "IC50": 0.95}
{"molecule": "COC(=O)c1cc(-c2ccccc2)n[nH]1", "note": "[Compound A4, methyl 3-phenyl-1H-pyrazole-5-carboxylate]", "IC50": 0.97}
{"molecule": "Oc1cc(-c2cccc3ccccc23)n[nH]1", "note": "[Compound A5, 3-(napthalen-1-yl)-1H-pyrazol-5-ol]", "IC50": 3.24}
{"molecule": "Nc1[nH]nc(-c2ccc(Br)cc2)c1Cl", "note": "[Compound A6, 3-(4-bromophenyl)-4-chloro-1-H-pyrazol-5-amine]", "IC50": 6.51}
{"molecule": "Cn1cccc1-c1cc(C(=O)O)[nH]n1", "note": "[Compound A7, 3-(1-methyl-1H-pyrrol-2-yl)-1H-pyrazole-5-carboxylate]", "IC50": 10.2}
{"molecule": "COC(=O)c1cc(-c2ccc(Br)cc2)n[nH]1", "note": "[Compound A8, methyl 3-(4-bromophenyl)-1H-pyrazole-5-carboxylate]", "IC50": 0.31}
{"molecule": "CCCCc1[nH]nc2c1C(=O)CC(C)(C)C2", "note": "[Compound B1, 3-butyl-6,6-dimethyl-6,7-dihydro-2H-indazol-4(5H)-one]", "IC50": 1.51}
{"molecule": "CC1(C)CC(=O)c2c(n[nH]c2-c2cccs2)C1", "note": "[Compound B2, 6,6-dimethyl-3-(thiophen-2-yl)-6,7-dihydro-2H-indazol-4(5H)-one]", "IC50": 3.67}
{"molecule": "CC1(C)CC(=O)c2c(n[nH]c2Cc2ccccc2)C1", "note": "[Compound B3, 3-benzyl-6,6-dimethyl-6,7-dihydro-2H-indazol-4(5H)-one]", "IC50": 0.57}
{"molecule": "Cc1cc(O)oc2nnc(-c3ccccc3)c1-2", "note": "[Compound B4, 4-methyl-3-phenylpyrano[2,3-c]pyrazol-6-ol]", "IC50": 0.99}
{"molecule": "COc1ccc(-c2nnc3oc(O)cc(C)c2-3)cc1", "note": "[Compound B5, 3-(4-methoxyphenyl)-4-methylpyrano[2,3-c]pyrazol-6-ol]", "IC50": 1.35}
{"molecule": "COCc1n[nH]c2c1C(c1cc(OC)c(O)c(OC)c1)C(C#N)=C(N)O2", "note": "(stereo not shown) [Compound B6, 6-amino-4-(4-hydroxy-3,5-dimethoxyphenyl)-3-(methoxymethyl)-1,4-dihydropyrano[2,3-c]pyrazole-5-carbonitrile]", "IC50": 5.25}
{"molecule": "Cc1cc(NC(=O)COC(=O)c2[nH]nc3ccccc23)no1", "note": "[Compound B8, 2-(5-methylisoxazol-3-ylamino)-2-oxoethyl 2H-indazole-3-carboxylate]", "IC50": 9.43}
{"molecule": "COc1ccc2c(c1)CCc1c-2n[nH]c1C(=O)O", "note": "[Compound B9, 7-methoxy-4,5-dihydro-2H-benzo [g]indazole-3-carboxylic acid]", "IC50": 0.32}
{"molecule": "O=C(O)c1[nH]nc2c1COc1ccccc1-2", "note": "[Compound B10, 2,4-dihydrochromeno[4,3-c]pyrazole-3-carboxylic acid]", "IC50": 1.35}
{"molecule": "c1ccc(-c2n[nH]c3c2CCC3)cc1", "note": "[Compound B11, 3-phenyl-1,4,5,6-tetrahydrocyclopenta[c]pyrazole]", "IC50": 3.4}
{"molecule": "Nc1nc(CSc2n[nH]c(-c3ccccc3)n2)nc(Nc2ccccc2)n1", "note": "[Compound C1, N^2-phenyl-6-[(5-phenyl-1H-1,2,4-triazol-3-ylthio)methyl]-1,3,5-triazine-2,4-diamine]", "IC50": 2.02}
{"molecule": "COc1ccccc1-c1nnc(SCc2ccccn2)[nH]1", "note": "[Compound C2, 2-((5-(2-methoxyphenyl)-4H-1,2,4-triazol-3-ylthio)methyl)pyridine]", "IC50": 3.79}
{"molecule": "CCOC(=O)c1sc(NC(=O)CSc2nnc(-c3ccccc3OC)[nH]2)c(C#N)c1C", "note": "[Compound C3, ethyl 4-cyano-5-{2-[5-(2-methoxyphenyl)-4H-1,2,4-triazol-3-ylthio]acetamide}-3-methylthiophene-2-carboxylate]", "IC50": 5.39}
{"molecule": "O=C(CSc1nnc(-c2ccccc2Br)[nH]1)NC(=O)NCc1ccco1", "note": "[Compound C4, 2-[5-(2-bromophenyl)-4H-1,2,4-triazol-3-ylthio]-N-(furan-2-ylmethylcarbamoyl)acetamide]", "IC50": 2.54}
{"molecule": "O=C(CSc1nnc(-c2ccccc2)[nH]1)NC(=O)NCc1ccco1", "note": "[Compound C5, N-(furan-2-ylmethylcarbamoyl)-2-(5-phenyl-4H-1,2,4-triazol-3-ylthio)acetamide]", "IC50": 1.57}
{"molecule": "O=C1C2CC=CCC2C(=O)N1c1nnc(Cc2ccccc2)[nH]1", "note": "(stereo not shown) [Compound E2]", "IC50": 0.33}
{"molecule": "CCCSc1nnc(NC(C)=O)[nH]1", "note": "[Compound E3]", "IC50": 0.68}
{"molecule": "[H]/N=C(C)\\C(C#N)=C(\\O)CSc1nnc(-c2ccccc2Br)[nH]1", "note": "[Compound E4]", "IC50": 1.06}
{"molecule": "COc1ccccc1-c1nnc(NC(C)=O)[nH]1", "note": "[Compound E5]", "IC50": 1.99}
{"molecule": "COc1cc(CSc2nnc[nH]2)c(OC)cc1CSc1nnc[nH]1", "note": "[Compound E6]", "IC50": 1.99}
{"molecule": "COc1cc(C(=O)Nc2cc(-c3ccccc3)n[nH]2)cc(OC)c1OC", "note": "[Compound E7]", "IC50": 2.39}
{"molecule": "Clc1ccccc1-c1n[nH]c(-c2ccccc2)n1", "note": "[Compound E8]", "IC50": 2.47}
{"molecule": "COc1ccc(-c2nc3n(n2)C(=O)CC(c2ccco2)S3)cc1", "note": "(stereo not shown) [Compound E9]", "IC50": 3.82}
{"molecule": "CCOC(=O)C1C(=O)Nc2nc3ccccc3n2C1C(C)C", "note": "(stereo not shown) [Compound E10]", "IC50": 3.94}
{"molecule": "C=CCSc1nc(-c2ccc(OC)cc2)n[nH]1", "note": "[Compound E11]", "IC50": 4.35}
{"molecule": "COc1ccc(OC)c(C(=O)CSc2nc3ccc[nH]c-3n2)c1", "note": "[Compound E12]", "IC50": 4.68}
{"molecule": "Oc1nc2cc(Cl)ccc2n1-c1ccccc1", "note": "[Compound E13]", "IC50": 5.34}
{"molecule": "Cn1ncc2c1ncn1c(-c3ccccc3Cl)nnc21", "note": "[Compound E14]", "IC50": 5.83}
{"molecule": "O=C(CSc1nc2ccc[nH]c-2n1)c1ccc(F)cc1", "note": "[Compound E15]", "IC50": 6.26}
{"molecule": "Cc1cccc(C)c1OCc1nnc2c3cnn(C)c3ncn12", "note": "[Compound E16]", "IC50": 6.89}
{"molecule": "Cc1ccc(-n2ccc3c2ncn2c(C)nnc32)cc1C", "note": "[Compound E17]", "IC50": 7.92}
{"molecule": "CC(C)C1N=C2c3ccccc3N=C(SCC(=O)c3ccc(O)c(O)c3)N2C1=O", "note": "(stereo not shown) [Compound E18]", "IC50": 10.3}
{"molecule": "Cc1ccsc1/C=c1\\sc2ncnn2c1=O", "note": "[Compound E19]", "IC50": 11.3}
{"molecule": "Cc1nc2c3cnn(-c4ccc(C)c(C)c4)c3ncn2n1", "note": "[Compound E20]", "IC50": 13}
{"molecule": "Cn1ncc2c1ncn1nc(CCc3ccccc3)nc21", "note": "[Compound E21]", "IC50": 16}
{"molecule": "CC1(C)Cc2c(sc3cc4n(c(=N)c23)CCCCC4)CO1", "note": "[Compound E22]", "IC50": 9.5}
{"molecule": "COc1ccc(C)cc1S(=O)(=O)Nc1cccnc1", "note": "[Compound F2]", "IC50": 0.75}
{"molecule": "CCOc1ccc(C)cc1S(=O)(=O)Nc1cccnc1", "note": "[Compound F3]", "IC50": 1.93}
{"molecule": "COc1ccc(OC)c(S(=O)(=O)Nc2ccc(O)c(Sc3nc[nH]n3)c2)c1", "note": "[Compound F4]", "IC50": 8.45}
{"molecule": "O=P(O)(O)c1ccccc1OCCOCCOc1ccccc1P(=O)(O)O", "note": "[Compound G1]", "IC50": 1.66}
{"molecule": "O=P(O)(O)c1ccccc1OCCCCCOc1ccccc1P(=O)(O)O", "note": "[Compound G2]", "IC50": 2.05}
{"molecule": "O=C(CCCn1c(SCC(=O)c2ccc(O)c(O)c2)nc2ccccc2c1=O)NCC1CCCO1", "note": "(stereo not shown) [Compound H1]", "IC50": 4.66}
{"molecule": "N#C/C(=C\\c1ccc(O)c(O)c1)C(=O)NCCCc1ccccc1", "note": "[Compound H2]", "IC50": 5.16}
{"molecular_target": "T2, human TNAP (Homo sapiens, UniProt P05186)", "T2 construct": "made in house; host or cells: COS-1 cells, transient expression; dialyzed serum-free conditioned medium", "T2 sequence (P05186 18-502 limits assumed)": "T1 sequence (P05186 18-502 limits assumed)", "experiment": "Enzyme kinetic experiments, Ki and mechanism of TNAP inhibition", "format": "biochemical", "conditions": "Tables D and E; pH not given; read-out: Ki", "procedure": "as §1\n[…] TNAP, PLAP and IAP activities were adjusted to an approximate ΔA405 nm, equivalent to 1, measured after 30 min. Residual AP activity in the presence of inhibitors was expressed as percentage of the control activity. To investigate the mechanism of inhibition, double reciprocal plots of enzyme activity (expressed as mA405 nm min^−1) vs. substrate concentration were constructed, in the presence of various concentrations of added inhibitors (0-30 μM). The y-axis intercepts of the 1/v vs. 1/[S] plots, were then plotted vs. [I] to graphically extract Ki values as the x-intercept in this plot. […] Inhibitors were further tested and sorted based on their kinetic properties at pH 7.4 using PPi, the relevant natural substrate of TNAP. […] Amounts of released phosphate were measured using the Biomol Green Reagent (Biomol Research Laboratories, Inc., Plymouth Meeting, Pa.).", "units": {"Ki": "µM"}}
{"molecule": "Cn1ccnc1Sc1nc(Nc2ccccc2)nc(Nc2ccccc2)n1", "note": "[Compound E1]", "Ki": 5.6}
